From ChEMBL document CHEMBL5325403, “Benzenesulfonyl thiazoloimines as unique multitargeting antibacterial agents towards Enterococcus faecalis” (Eur J Med Chem, 2023)
Converted amounts (≈) assume the structure as drawn. The source made the active and inactive calls. The calls are words filed in the database; no cut-off is given here.

Key:
Staphylococcus aureus [1] = assay: Antibacterial activity against methicillin-resistant Staphylococcus aureus N315 assessed as inhibition of bacterial growth by continuous dilution method; type: functional
Enterococcus faecalis [2] = assay: Antibacterial activity against Enterococcus faecalis assessed as inhibition of bacterial growth by continuous dilution method; type: functional
Staphylococcus aureus [3] = assay: Antibacterial activity against Staphylococcus aureus assessed as inhibition of bacterial growth by continuous dilution method; type: functional
Staphylococcus aureus [4] = assay: Antibacterial activity against Staphylococcus aureus ATCC 25923 assessed as inhibition of bacterial growth by continuous dilution method; type: functional
Staphylococcus aureus [5] = assay: Antibacterial activity against Staphylococcus aureus ATCC 29213 assessed as inhibition of bacterial growth by continuous dilution method; type: functional
Klebsiella pneumoniae = assay: Antibacterial activity against Klebsiella pneumoniae assessed as inhibition of bacterial growth by continuous dilution method; type: functional
Escherichia coli [6] = assay: Antibacterial activity against Escherichia coli assessed as inhibition of bacterial growth by continuous dilution method; type: functional
Pseudomonas aeruginosa [7] = assay: Antibacterial activity against Pseudomonas aeruginosa assessed as inhibition of bacterial growth by continuous dilution method; type: functional
Acinetobacter baumannii = assay: Antibacterial activity against Acinetobacter baumannii assessed as inhibition of bacterial growth by continuous dilution method; type: functional
Pseudomonas aeruginosa [8] = assay: Antibacterial activity against Pseudomonas aeruginosa ATCC 27853 assessed as inhibition of bacterial growth by continuous dilution method; type: functional
Escherichia coli [9] = assay: Antibacterial activity against Escherichia coli ATCC 25922 assessed as inhibition of bacterial growth by continuous dilution method; type: functional
Enterococcus faecalis [10] = assay: Antibacterial activity against Enterococcus faecalis p1-2007226001 assessed as inhibition of bacterial growth by continuous dilution method; type: functional
Enterococcus faecalis [11] = assay: Antibacterial activity against Enterococcus faecalis p1-2007225053 assessed as inhibition of bacterial growth by continuous dilution method; type: functional
Enterococcus faecalis [12] = assay: Antibacterial activity against Enterococcus faecalis assessed as log reduction in bacterial growth measured after 6 hrs by continuous dilution method; type: functional
Enterococcus faecalis [13] = assay: Antibacterial activity against Enterococcus faecalis assessed as reduction in bacterial growth measured after 16 passages by continuous dilution method; type: functional, organism-based
[14] = Hemolytic activity in human RBC assessed as hemolysis at 512 times of MIC measured after 1 hr; type: toxicity, cell-based, Erythrocyte; conditions: red blood cells (erythrocytes), read-out: Activity
[15] = Cytotoxicity against human NOK-SI cells assessed as cell viability rate at 20 ug/ml; type: toxicity, cell-based; conditions: at 20 µg/mL, read-out: Activity
[16] = Cytotoxicity against human FHC cells assessed as cell viability rate at 20 ug/ml; type: toxicity, cell-based; conditions: at 20 µg/mL, read-out: Activity
Enterococcus faecalis [17] = assay: Antibiofilm activity against Enterococcus faecalis assessed as inhibition of biofilm formation at 6 times of MIC by crystal violet staining based analysis; type: functional; set-up: scale not given: the % may be the effect or the level left
Enterococcus faecalis [18] = assay: Antibiofilm activity against Enterococcus faecalis assessed as inhibition of biofilm formation at 0.5 to 6 times of MIC by crystal violet staining based analysis; type: functional, organism-based
Cell membrane [19] = assay: Induction of cytoplasmic membrane depolarization in Enterococcus faecalis at 4 times of MIC by DiSC35 dye-based fluorescence assay; conditions: time <= 80.0 min, TDE = time-dependent effect
Cell membrane [20] = assay: Induction of inner membrane permeabilization in Enterococcus faecalis at 4 times of MIC measured at 25 mins by PI staining under fluorescence microscopic analysis
Enterococcus faecalis [21] = assay: Effect on cell morphology in Enterococcus faecalis assessed as cell deformation at 2 times of MIC incubated for 4 hrs by scanning electron microscopic analysis; type: functional, organism-based
Enterococcus faecalis [22] = assay: Effect on cell morphology in Enterococcus faecalis assessed as cell shrank at 2 times of MIC incubated for 4 hrs by scanning electron microscopic analysis; type: functional, organism-based
Cell membrane [23] = assay: Disruption of cell membrane integrity in Enterococcus faecalis assessed as increase in protein leakage by Bradford assay
Enterococcus faecalis [24] = assay: Antibacterial activity against Enterococcus faecalis assessed as reduction in metabolic activity at 0.5 to 8 times of MIC by alamar blue staining based assay; type: functional, organism-based
Enterococcus faecalis [25] = assay: Induction of intracellular ROS generation in Enterococcus faecalis by DCFH-DA staining based fluorescence microscopic analysis; type: functional, organism-based
Enterococcus faecalis [26] = assay: Induction of oxidative stress in Enterococcus faecalis assessed as decrease in GSH activity at 0.5 to 16 times of MIC by Ellman's method; type: functional, organism-based
Calf thymus DNA [27] = assay: Binding affinity to calf thymus DNA assessed as compound DNA complex formation by UV-Vis spectrophotometric analysis; type: nucleic-acid assay; conditions: Bos taurus
Calf thymus DNA [28] = assay: Binding affinity to calf thymus DNA assessed as compound DNA complex formation by measuring fluorescence intensity by acridine orange dye based competitive binding assay; type: nucleic-acid assay; conditions: Bos taurus
Calf thymus DNA [29] = assay: Binding affinity to calf thymus DNA assessed as reduction in NR-DNA complex formation by measuring fluorescence intensity by competitive binding assay; type: nucleic-acid assay; conditions: Bos taurus

SMILES	MIC (Staphylococcus aureus [1]) [µg/mL]	MIC (Enterococcus faecalis [2]) [µg/mL]	MIC (Staphylococcus aureus [3]) [µg/mL]	MIC (Staphylococcus aureus [4]) [µg/mL]	MIC (Staphylococcus aureus [5]) [µg/mL]	MIC (Klebsiella pneumoniae) [µg/mL]	MIC (Escherichia coli [6]) [µg/mL]	MIC (Pseudomonas aeruginosa [7]) [µg/mL]	MIC (Acinetobacter baumannii) [µg/mL]	MIC (Pseudomonas aeruginosa [8]) [µg/mL]	MIC (Escherichia coli [9]) [µg/mL]	MIC (Enterococcus faecalis [10]) [µg/mL]	MIC (Enterococcus faecalis [11]) [µg/mL]	further results
CCn1cc(C(=O)O)c(=O)c2cc(F)c(N3CCNCC3)cc21 [NORFLOXACIN]	8 (≈ 25.1 µM)	8 (≈ 25.1 µM)	4 (≈ 12.5 µM)	4 (≈ 12.5 µM)	2 (≈ 6.26 µM)	8 (≈ 25.1 µM)	16 (≈ 50.1 µM)	2 (≈ 6.26 µM)	4 (≈ 12.5 µM)	2 (≈ 6.26 µM)	4 (≈ 12.5 µM)	4 (≈ 12.5 µM)	8 (≈ 25.1 µM)	–
CC(=O)Nc1ccc(S(=O)(=O)C/C(=N/NC(=O)c2ccccn2)c2nccs2)cc1	64 (≈ 144 µM)	1 (≈ 2.25 µM)	4 (≈ 9.02 µM)	4 (≈ 9.02 µM)	256 (≈ 577 µM)	64 (≈ 144 µM)	32 (≈ 72.2 µM)	128 (≈ 289 µM)	32 (≈ 72.2 µM)	32 (≈ 72.2 µM)	64 (≈ 144 µM)	4 (≈ 9.02 µM)	2 (≈ 4.51 µM)	Activity (Enterococcus faecalis [12]): Dose-Dependent Effect; log(activity) (Enterococcus faecalis [12]): 3; Activity (Enterococcus faecalis [13]): Active; hemolysis at 1 h, 512 times of MIC [14]: < 3%; viability at 20 ug/ml [15]: 65%; viability at 20 ug/ml [16]: 45%; Activity (Enterococcus faecalis [17]): 35%; Activity (Enterococcus faecalis [18]): Active; Activity (Cell membrane [19]): Tde; Activity (Cell membrane [20]): Active; Activity (Enterococcus faecalis [21]): Active; Activity (Enterococcus faecalis [22]): Active; Activity (Cell membrane [23]): Dose-Dependent Effect; Activity (Enterococcus faecalis [24]): Active; Activity (Enterococcus faecalis [25]): Dose-Dependent Effect; Activity (Enterococcus faecalis [26]): Active; Activity (Calf thymus DNA [27]): Active; Activity (Calf thymus DNA [28]): Active; Activity (Calf thymus DNA [29]): Active
CC(=O)Nc1ccc(S(=O)(=O)C/C(=N/Nc2ccc([N+](=O)[O-])cc2[N+](=O)[O-])c2nccs2)cc1	8 (≈ 15.9 µM)	2 (≈ 3.96 µM)	2 (≈ 3.96 µM)	4 (≈ 7.93 µM)	32 (≈ 63.4 µM)	64 (≈ 127 µM)	64 (≈ 127 µM)	64 (≈ 127 µM)	4 (≈ 7.93 µM)	32 (≈ 63.4 µM)	4 (≈ 7.93 µM)	–	–	–
Nc1ccc(S(=O)(=O)C/C(=N/OCc2ccc(Cl)cc2)c2nccs2)cc1	64 (≈ 152 µM)	8 (≈ 19 µM)	64 (≈ 152 µM)	64 (≈ 152 µM)	128 (≈ 303 µM)	16 (≈ 37.9 µM)	16 (≈ 37.9 µM)	64 (≈ 152 µM)	64 (≈ 152 µM)	8 (≈ 19 µM)	8 (≈ 19 µM)	–	–	–
